The source made the active and inactive calls. For most assays here, no stated cut-off is given here; in the data, actives have a measured Kd and inactives only a lower limit.
Key:
[1] = biological target: Serine/threonine-protein kinase 10 (Homo sapiens, UniProt O94804)
[2] = biological target: Mitogen-activated protein kinase 1 (Homo sapiens, UniProt P28482)
[3] = biological target: Casein kinase I isoform gamma-1 (Homo sapiens, UniProt Q9HCP0)
[4] = biological target: Cyclin-dependent kinase 1 (Homo sapiens, UniProt P06493)
[5] = biological target: TRAF2 and NCK-interacting protein kinase (Homo sapiens, UniProt Q9UKE5)
[6] = biological target: Receptor-interacting serine/threonine-protein kinase 3 (Homo sapiens, UniProt Q9Y572)
[7] = biological target: Calcium/calmodulin-dependent protein kinase kinase 2 (Homo sapiens, UniProt Q96RR4)
Ephrin type-B receptor 2 = biological target: T1, Ephrin type-B receptor 2 (Homo sapiens, UniProt P29323)
T1 sequence (P29323 whole entry): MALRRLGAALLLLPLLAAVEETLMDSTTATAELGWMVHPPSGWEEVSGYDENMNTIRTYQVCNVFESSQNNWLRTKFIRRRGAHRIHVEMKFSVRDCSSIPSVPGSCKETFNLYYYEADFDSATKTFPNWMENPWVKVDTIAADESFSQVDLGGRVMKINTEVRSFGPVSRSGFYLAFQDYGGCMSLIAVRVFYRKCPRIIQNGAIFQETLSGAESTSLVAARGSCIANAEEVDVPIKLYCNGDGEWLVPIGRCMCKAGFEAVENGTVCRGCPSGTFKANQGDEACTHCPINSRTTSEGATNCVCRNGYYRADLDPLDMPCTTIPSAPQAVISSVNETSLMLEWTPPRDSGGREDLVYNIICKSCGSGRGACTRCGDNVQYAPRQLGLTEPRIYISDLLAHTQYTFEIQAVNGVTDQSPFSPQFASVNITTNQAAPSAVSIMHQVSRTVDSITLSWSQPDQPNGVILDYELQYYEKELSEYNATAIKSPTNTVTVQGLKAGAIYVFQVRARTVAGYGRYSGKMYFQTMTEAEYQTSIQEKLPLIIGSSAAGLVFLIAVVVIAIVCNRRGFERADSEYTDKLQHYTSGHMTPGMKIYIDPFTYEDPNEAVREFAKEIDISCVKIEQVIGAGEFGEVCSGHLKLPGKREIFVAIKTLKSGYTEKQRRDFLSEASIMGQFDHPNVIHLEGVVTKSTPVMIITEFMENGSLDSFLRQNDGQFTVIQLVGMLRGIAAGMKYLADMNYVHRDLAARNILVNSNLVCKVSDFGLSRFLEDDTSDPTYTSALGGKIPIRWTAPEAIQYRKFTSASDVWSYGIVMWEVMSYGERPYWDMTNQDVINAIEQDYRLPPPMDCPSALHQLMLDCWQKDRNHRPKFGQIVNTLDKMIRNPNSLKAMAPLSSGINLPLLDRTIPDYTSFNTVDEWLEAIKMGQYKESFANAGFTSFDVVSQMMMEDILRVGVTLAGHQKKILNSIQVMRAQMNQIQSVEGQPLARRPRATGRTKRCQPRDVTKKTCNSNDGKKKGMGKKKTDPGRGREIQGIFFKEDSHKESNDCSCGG

[8] = biological target: T2, Mitogen-activated protein kinase kinase kinase 6 (Homo sapiens, UniProt O95382)
T2 sequence (O95382 whole entry): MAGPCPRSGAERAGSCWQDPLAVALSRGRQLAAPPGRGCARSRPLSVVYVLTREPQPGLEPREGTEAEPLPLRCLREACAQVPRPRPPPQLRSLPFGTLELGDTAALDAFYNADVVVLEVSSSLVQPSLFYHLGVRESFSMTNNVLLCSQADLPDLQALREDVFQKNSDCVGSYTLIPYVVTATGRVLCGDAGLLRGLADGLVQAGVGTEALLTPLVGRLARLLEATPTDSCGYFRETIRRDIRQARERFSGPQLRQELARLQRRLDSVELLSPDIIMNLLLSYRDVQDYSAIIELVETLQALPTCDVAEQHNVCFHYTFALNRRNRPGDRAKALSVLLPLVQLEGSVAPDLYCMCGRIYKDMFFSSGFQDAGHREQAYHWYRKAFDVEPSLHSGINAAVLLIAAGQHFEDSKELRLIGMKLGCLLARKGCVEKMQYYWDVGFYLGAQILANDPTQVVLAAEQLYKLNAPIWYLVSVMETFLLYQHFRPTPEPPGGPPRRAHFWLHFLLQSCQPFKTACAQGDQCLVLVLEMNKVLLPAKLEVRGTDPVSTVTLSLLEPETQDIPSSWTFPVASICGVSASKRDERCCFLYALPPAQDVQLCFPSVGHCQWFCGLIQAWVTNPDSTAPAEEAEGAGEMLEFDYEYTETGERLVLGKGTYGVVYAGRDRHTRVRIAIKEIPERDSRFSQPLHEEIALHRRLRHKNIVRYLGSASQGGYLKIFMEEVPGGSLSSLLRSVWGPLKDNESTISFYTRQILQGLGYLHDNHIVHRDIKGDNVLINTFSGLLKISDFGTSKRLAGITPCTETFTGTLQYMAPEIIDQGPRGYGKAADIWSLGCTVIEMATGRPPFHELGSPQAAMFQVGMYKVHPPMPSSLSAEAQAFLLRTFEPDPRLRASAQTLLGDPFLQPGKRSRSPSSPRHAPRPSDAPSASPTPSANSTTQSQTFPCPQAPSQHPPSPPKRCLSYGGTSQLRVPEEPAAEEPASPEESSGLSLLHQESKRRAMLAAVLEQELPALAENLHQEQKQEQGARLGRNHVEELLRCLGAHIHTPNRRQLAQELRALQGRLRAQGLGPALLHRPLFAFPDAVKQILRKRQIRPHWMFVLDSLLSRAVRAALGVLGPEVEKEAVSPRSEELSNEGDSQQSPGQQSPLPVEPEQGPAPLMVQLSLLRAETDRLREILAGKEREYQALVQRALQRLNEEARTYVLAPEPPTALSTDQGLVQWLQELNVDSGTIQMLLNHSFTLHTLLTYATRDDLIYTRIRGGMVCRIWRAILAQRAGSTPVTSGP

LIM domain kinase 1 = LIM domain kinase 1 (Homo sapiens, UniProt P53667)
LIM domain kinase 1, sequence (P53667 whole entry, the tested form may be a part): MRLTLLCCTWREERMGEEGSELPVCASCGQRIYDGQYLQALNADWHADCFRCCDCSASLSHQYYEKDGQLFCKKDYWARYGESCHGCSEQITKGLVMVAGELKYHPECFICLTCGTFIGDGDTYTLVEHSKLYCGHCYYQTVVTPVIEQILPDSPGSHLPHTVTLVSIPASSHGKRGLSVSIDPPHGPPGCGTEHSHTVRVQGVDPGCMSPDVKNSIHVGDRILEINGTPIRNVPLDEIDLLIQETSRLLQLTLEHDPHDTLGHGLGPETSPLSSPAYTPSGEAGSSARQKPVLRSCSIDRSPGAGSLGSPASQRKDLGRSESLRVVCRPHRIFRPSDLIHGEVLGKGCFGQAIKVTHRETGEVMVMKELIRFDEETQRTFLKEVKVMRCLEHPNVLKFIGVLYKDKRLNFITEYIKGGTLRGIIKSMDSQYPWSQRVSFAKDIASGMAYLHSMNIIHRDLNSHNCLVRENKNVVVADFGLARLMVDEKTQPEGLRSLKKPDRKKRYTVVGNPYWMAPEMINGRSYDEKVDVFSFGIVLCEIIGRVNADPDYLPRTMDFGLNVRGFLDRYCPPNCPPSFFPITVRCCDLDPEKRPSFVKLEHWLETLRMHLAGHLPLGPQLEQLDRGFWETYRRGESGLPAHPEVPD

Mitogen-activated protein kinase 1, sequence (P28482 whole entry, canonical isoform): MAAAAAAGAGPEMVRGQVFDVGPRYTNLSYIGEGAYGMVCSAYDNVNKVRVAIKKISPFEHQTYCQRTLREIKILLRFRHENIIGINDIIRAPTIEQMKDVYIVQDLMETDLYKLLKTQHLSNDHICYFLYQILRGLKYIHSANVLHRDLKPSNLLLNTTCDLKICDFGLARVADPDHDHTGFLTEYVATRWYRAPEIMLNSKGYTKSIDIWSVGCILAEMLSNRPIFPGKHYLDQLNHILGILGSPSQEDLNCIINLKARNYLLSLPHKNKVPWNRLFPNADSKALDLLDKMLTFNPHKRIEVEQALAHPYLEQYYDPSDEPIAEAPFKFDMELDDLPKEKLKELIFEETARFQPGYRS
TRAF2 and NCK-interacting protein kinase, sequence (Q9UKE5 whole entry): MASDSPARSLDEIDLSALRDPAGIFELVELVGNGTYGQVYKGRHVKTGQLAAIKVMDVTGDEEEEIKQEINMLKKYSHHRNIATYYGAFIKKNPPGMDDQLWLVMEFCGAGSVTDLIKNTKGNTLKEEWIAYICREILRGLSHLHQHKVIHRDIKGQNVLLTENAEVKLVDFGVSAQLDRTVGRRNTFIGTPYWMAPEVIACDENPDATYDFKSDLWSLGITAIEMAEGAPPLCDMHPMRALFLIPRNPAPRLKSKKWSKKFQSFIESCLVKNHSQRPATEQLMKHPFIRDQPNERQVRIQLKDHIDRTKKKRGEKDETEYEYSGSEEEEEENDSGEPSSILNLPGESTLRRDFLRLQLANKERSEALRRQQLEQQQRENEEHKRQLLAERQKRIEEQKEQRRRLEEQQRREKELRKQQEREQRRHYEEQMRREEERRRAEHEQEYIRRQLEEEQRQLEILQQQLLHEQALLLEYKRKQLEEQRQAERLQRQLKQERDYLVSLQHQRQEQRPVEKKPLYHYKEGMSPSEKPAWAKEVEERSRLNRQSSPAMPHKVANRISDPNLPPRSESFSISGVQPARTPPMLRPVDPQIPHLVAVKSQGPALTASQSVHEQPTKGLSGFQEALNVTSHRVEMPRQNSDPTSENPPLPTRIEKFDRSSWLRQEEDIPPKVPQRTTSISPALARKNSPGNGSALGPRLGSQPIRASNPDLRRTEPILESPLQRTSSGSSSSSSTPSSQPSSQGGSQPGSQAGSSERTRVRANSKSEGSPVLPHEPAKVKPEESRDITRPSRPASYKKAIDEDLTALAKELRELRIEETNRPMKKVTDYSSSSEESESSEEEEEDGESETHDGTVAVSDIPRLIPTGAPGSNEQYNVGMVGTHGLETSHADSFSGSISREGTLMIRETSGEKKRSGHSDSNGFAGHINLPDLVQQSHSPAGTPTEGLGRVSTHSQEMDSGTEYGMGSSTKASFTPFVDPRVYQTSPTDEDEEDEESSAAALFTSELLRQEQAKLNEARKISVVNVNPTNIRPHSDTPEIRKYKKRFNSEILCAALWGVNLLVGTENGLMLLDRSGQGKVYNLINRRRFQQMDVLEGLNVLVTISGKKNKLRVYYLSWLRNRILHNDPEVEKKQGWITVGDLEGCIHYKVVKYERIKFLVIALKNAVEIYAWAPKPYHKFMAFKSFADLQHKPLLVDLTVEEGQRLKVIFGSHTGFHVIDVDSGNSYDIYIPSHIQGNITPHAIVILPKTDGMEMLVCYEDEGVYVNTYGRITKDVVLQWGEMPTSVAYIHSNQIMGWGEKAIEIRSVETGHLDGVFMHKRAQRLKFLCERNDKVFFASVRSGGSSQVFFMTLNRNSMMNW
Receptor-interacting serine/threonine-protein kinase 3, sequence (Q9Y572 whole entry): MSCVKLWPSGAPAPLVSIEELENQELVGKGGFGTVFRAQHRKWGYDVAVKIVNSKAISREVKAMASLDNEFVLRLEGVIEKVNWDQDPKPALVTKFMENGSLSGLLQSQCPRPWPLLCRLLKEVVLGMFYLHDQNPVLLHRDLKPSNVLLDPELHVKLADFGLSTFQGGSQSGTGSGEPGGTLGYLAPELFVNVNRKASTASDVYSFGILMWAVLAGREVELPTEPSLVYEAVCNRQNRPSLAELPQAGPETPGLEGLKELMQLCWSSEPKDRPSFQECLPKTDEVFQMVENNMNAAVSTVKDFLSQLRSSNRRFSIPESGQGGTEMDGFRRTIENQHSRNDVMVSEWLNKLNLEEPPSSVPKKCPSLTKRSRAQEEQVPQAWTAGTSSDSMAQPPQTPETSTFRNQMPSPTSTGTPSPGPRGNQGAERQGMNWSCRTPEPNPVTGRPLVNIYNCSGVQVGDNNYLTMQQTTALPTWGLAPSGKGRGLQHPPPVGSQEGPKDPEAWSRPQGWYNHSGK
Cyclin-dependent kinase 1, sequence (P06493 whole entry): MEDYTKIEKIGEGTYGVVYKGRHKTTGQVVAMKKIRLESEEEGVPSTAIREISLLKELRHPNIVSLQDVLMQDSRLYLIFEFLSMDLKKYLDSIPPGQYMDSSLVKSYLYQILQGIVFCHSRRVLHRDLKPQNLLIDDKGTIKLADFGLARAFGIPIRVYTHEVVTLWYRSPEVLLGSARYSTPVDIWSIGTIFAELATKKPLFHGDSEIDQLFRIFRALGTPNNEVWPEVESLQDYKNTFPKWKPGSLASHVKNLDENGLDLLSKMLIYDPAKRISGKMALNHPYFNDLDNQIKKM
Serine/threonine-protein kinase 10, sequence (O94804 whole entry): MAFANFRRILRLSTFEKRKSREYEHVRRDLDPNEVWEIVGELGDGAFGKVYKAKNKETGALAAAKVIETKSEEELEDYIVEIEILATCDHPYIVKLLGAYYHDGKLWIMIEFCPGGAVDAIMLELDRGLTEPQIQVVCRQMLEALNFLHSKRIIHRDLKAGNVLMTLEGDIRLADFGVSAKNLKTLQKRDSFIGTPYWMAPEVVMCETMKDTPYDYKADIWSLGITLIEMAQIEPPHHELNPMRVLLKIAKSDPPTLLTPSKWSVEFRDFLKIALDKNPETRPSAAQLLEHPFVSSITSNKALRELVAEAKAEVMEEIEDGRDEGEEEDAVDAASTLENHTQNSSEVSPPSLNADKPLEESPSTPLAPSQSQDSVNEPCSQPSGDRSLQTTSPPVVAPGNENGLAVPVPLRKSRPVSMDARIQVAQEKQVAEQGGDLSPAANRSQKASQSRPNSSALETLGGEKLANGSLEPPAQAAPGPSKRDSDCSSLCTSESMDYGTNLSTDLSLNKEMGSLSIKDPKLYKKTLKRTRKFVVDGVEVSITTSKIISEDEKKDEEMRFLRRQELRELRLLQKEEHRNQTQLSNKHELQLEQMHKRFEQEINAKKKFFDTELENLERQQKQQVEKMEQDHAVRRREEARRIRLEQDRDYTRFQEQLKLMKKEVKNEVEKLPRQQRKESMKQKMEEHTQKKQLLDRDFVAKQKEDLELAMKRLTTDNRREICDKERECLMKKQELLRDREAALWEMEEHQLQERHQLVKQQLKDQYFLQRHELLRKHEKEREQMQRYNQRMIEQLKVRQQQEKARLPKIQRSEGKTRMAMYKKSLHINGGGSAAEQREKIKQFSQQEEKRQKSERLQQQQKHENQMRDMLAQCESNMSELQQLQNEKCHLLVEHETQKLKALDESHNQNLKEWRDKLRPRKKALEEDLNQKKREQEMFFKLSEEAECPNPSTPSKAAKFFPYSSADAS
Casein kinase I isoform gamma-1, sequence (Q9HCP0 whole entry, canonical isoform): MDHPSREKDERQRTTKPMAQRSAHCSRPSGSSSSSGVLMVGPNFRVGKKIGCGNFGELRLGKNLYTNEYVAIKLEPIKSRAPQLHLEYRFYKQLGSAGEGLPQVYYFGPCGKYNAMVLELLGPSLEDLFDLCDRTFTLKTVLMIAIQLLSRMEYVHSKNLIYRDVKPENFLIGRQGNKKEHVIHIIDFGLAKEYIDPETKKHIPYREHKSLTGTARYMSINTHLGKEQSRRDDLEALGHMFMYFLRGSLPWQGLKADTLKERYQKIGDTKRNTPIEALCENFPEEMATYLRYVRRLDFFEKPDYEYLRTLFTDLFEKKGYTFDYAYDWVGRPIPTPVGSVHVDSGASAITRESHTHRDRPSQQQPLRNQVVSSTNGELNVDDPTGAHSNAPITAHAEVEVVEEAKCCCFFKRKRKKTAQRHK

SMILES	Kd [1]	Kd [2]	Kd [3]	Kd [4]	Kd [5]	Kd [6]	Kd [7]	Kd (Ephrin type-B receptor 2)	Kd [8]	Kd (LIM domain kinase 1)
Cc1nc(Nc2n[nH]c3c2CN(C(=O)N[C@H](CN(C)C)c2ccccc2)C3(C)C)c2sccc2n1 [PF-03758309]	> 30 µM (inactive)	1.96 µM (active)	> 30 µM (inactive)	> 30 µM (inactive)	> 30 µM (inactive)	> 30 µM (inactive)	2.86 µM (active)	> 30 µM (inactive)	> 30 µM (inactive)	> 30 µM (inactive)
Cc1cnc(NC(=O)Nc2cc(Br)c(C)cc2OC[C@@H]2CNCCO2)cn1 [RABUSERTIB]	> 30 µM (inactive)	> 30 µM (inactive)	> 30 µM (inactive)	> 30 µM (inactive)	> 30 µM (inactive)	> 30 µM (inactive)	> 30 µM (inactive)	> 30 µM (inactive)	> 30 µM (inactive)	> 30 µM (inactive)
CO[C@H]1C[C@@H]2CC[C@@H](C)[C@@](O)(O2)C(=O)C(=O)N2CCCC[C@H]2C(=O)O[C@H]([C@H](C)C[C@@H]2CC[C@@H](OP(C)(C)=O)[C@H](OC)C2)CC(=O)[C@H](C)/C=C(\C)[C@@H](O)[C@@H](OC)C(=O)[C@H](C)C[C@H](C)/C=C/C=C/C=C/1C [RIDAFOROLIMUS]	> 30 µM (inactive)	> 30 µM (inactive)	> 30 µM (inactive)	> 30 µM (inactive)	> 30 µM (inactive)	> 30 µM (inactive)	> 30 µM (inactive)	> 30 µM (inactive)	> 30 µM (inactive)	> 30 µM (inactive)
N#CC1(c2ccc(NC(=O)c3cccnc3NCc3ccncc3)cc2)CCCC1 [RIVOCERANIB]	> 30 µM (inactive)	> 30 µM (inactive)	> 30 µM (inactive)	> 30 µM (inactive)	> 30 µM (inactive)	2.37 µM (active)	> 30 µM (inactive)	> 30 µM (inactive)	> 30 µM (inactive)	> 30 µM (inactive)
O=c1[nH]ccc2cc(OC3CCNCC3)ccc12 [SAR-407899 FREE BASE]	> 30 µM (inactive)	> 30 µM (inactive)	> 30 µM (inactive)	> 30 µM (inactive)	> 30 µM (inactive)	> 30 µM (inactive)	> 30 µM (inactive)	> 30 µM (inactive)	> 30 µM (inactive)	> 30 µM (inactive)
CN1CCN(CCOc2cc(OC3CCOCC3)c3c(Nc4c(Cl)ccc5c4OCO5)ncnc3c2)CC1 [SARACATINIB]	11.7 µM (active)	> 30 µM (inactive)	> 30 µM (inactive)	> 30 µM (inactive)	1.38 µM (active)	1.77 µM (active)	> 30 µM (inactive)	9.42 µM (active)	> 30 µM (inactive)	> 30 µM (inactive)
Cn1cc(-c2cnn3c(N)c(Br)c([C@@H]4CCCNC4)nc23)cn1 [SCH-900776]	4.39 µM (active)	> 30 µM (inactive)	> 30 µM (inactive)	> 30 µM (inactive)	> 30 µM (inactive)	> 30 µM (inactive)	> 30 µM (inactive)	> 30 µM (inactive)	> 30 µM (inactive)	> 30 µM (inactive)
CO[C@H]1C[C@@H]2CC[C@@H](C)[C@@](O)(O2)C(=O)C(=O)N2CCCC[C@H]2C(=O)O[C@H]([C@H](C)C[C@@H]2CC[C@@H](O)[C@H](OC)C2)CC(=O)[C@H](C)/C=C(\C)[C@@H](O)[C@@H](OC)C(=O)[C@H](C)C[C@H](C)/C=C/C=C/C=C/1C [SIROLIMUS]	> 30 µM (inactive)	> 30 µM (inactive)	> 30 µM (inactive)	> 30 µM (inactive)	> 30 µM (inactive)	> 30 µM (inactive)	> 30 µM (inactive)	> 30 µM (inactive)	> 30 µM (inactive)	> 30 µM (inactive)
CCS(=O)(=O)c1cccc(-c2cc(C(=O)NC3CCN(C)CC3)c(C)c3[nH]c4ncc(C)cc4c23)c1 [TAK-901]	0.949 µM (active)	> 30 µM (inactive)	> 30 µM (inactive)	> 30 µM (inactive)	> 30 µM (inactive)	> 30 µM (inactive)	> 30 µM (inactive)	0.669 µM (active)	> 30 µM (inactive)	> 30 µM (inactive)
CO[C@H]1C[C@@H]2CC[C@@H](C)[C@@](O)(O2)C(=O)C(=O)N2CCCC[C@H]2C(=O)O[C@H]([C@H](C)C[C@@H]2CC[C@@H](OC(=O)C(C)(CO)CO)[C@H](OC)C2)CC(=O)[C@H](C)/C=C(\C)[C@@H](O)[C@@H](OC)C(=O)[C@H](C)C[C@H](C)/C=C/C=C/C=C/1C [TEMSIROLIMUS]	> 30 µM (inactive)	> 30 µM (inactive)	> 30 µM (inactive)	> 30 µM (inactive)	> 30 µM (inactive)	> 30 µM (inactive)	> 30 µM (inactive)	> 30 µM (inactive)	> 30 µM (inactive)	> 30 µM (inactive)
COc1cc2c(Nc3ccc(Cl)c(Cl)c3F)ncnc2cc1OC[C@@H]1C[C@@H]2CN(C)C[C@@H]2C1 [TESEVATINIB]	1.91 µM (active)	> 30 µM (inactive)	> 30 µM (inactive)	> 30 µM (inactive)	> 30 µM (inactive)	0.366 µM (active)	> 30 µM (inactive)	0.448 µM (active)	> 30 µM (inactive)	> 30 µM (inactive)
O=C(Cc1ccc(-c2ccc(OCCN3CCOCC3)cc2)cn1)NCc1ccccc1 [TIRBANIBULIN]	> 30 µM (inactive)	> 30 µM (inactive)	> 30 µM (inactive)	> 30 µM (inactive)	> 30 µM (inactive)	> 30 µM (inactive)	> 30 µM (inactive)	> 30 µM (inactive)	> 30 µM (inactive)	> 30 µM (inactive)
O=C1NC(=O)[C@@H](c2cn3c4c(cccc24)CCC3)[C@@H]1c1c[nH]c2ccccc12 [TIVANTINIB]	> 30 µM (inactive)	> 30 µM (inactive)	> 30 µM (inactive)	> 30 µM (inactive)	> 30 µM (inactive)	> 30 µM (inactive)	> 30 µM (inactive)	> 30 µM (inactive)	> 30 µM (inactive)	> 30 µM (inactive)

From ChEMBL document CHEMBL3991601, “The target landscape of clinical kinase drugs” (Science, 2017)
